Test results published in patent US20160199392A1, “METHOD FOR INDIVIDUALIZED DRUG THERAPY” (Autotelic LLC, priority 2015, published 2016).
Marks after values point to notes of the source that are not given here.

Assays:
[1] = test system: Signs and Symptoms of Osteoarthritis; conditions: cited from earlier work
[2] = Combined plots / meta analysis of published pharmacokinetic data; assay type: in vivo, patients
Method: Accordingly, the dose proportionality may not be as is described by the package insert for Celebrex®. As a result of the failure to determine and pursue target PK ranges, in some instances patients receiving 100 mg patients may not get enough of the drug and the 200 mg patients may receive too much of the drug.
In other words, the most efficacious celecoxib dosage is highly individualized among the elderly. Unexpectedly, elderly here is defined as patients greater than >40 or >50, not the usually definition of elderly (age greater>65).
Based on the wide range of AUC values, some instances patients receiving 100 mg patients may not get enough of the drug and the 200 mg patients may receive too much of the drug (FIG. 2).

pain = conditions: 100 mg dose, for the duration of the six week study; cited from earlier work
[3] = Naproxen group, at 12 weeks, n = 198

Row | Compound | Withdrawal due to treatment failure (%) ([1]; Naproxen group, 12 weeks, n = 198) | Patient global assessment condition improved (%) [1, 3] | Patient global assessment condition worsened (%) [1, 3] | Physician's global assessment condition improved (%) [1, 3] | Physician's global assessment condition worsened (%) [1, 3] | Mean +/− SEM Osteoarthritis Severity Index ([1]; Naproxen group, at 12 weeks, scale 0 to 24, negative change indicating improvement) | Mean +/− SEM WOMAC Osteoarthritis Index composite score ([1]; Naproxen group, at 12 weeks, scale 0 to 96, negative change indicating improvement) | variability of PK parameters (AUC) by age group ([2]; applicant's meta analysis, one dose AUC, elderly (>40 or >50) vs younger patients, FIG. 3) | variability of pharmacokinetics ([2]; combined plots of published pharmacokinetic data, FIG. 2, 100 mg and 200 mg doses) | side effects reported ([1]; 100 mg dose compared with 200 mg dose) | side effects reported (pain)
1 | COc1ccc2cc([C@H](C)C(=O)O)ccc2c1 [Naproxen, naproxen] | 26‡ % | 29‡ % | 2% | 33‡ % | 1% | −3.1 +/− 0.30‡ | −11.9 +/− 1.29‡ | – | – | – | –
2 | Cc1ccc(-c2cc(C(F)(F)F)nn2-c2ccc(S(N)(=O)=O)cc2)cc1 [celecoxib, Celecoxib] | – | – | – | – | – | – | – | higher variability than younger patients | unexpectedly high | fewer side effects | fewer side effects
